In patent US8093231B2, “Sulfonylethyl phosphorodiamidates” (Telik, Inc., priority 2004, dated 2012):
Where two headings read alike, the source gives them in different places.

Assays:
MX-1 (breast carcinoma) = experiment: Cytotoxicity/growth inhibition assay, MX-1; type: cell-based, human; conditions: read-out: IC50 (MX-1)
In short: (§1)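 Test compounds in DMSO (0.1–200 μM; final DMSO 0.5%) added to freshly diluted cells (3×10^3 cells/mL MX-1 and DLD-1, 6×10^3 cells/mL LNCap), triplicate wells. Cultured ~three doubling times (3 days MX-1, 4 days DLD-1/LNCap). CellTiter-Glo luminescence, 15 min room temperature; growth expressed as % of DMSO solvent control.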

[1] = test system: MX-1 (human breast cancer) tumor; experiment: MX-1 xenograft assay, intraperitoneal administration; type: in vivo, athymic nu/nu mice; conditions: for activity in MX-1 xenograft assay / tumor growth inhibition compared to vehicle: 100 mg/Kg intraperitoneal once/day for 5, 9, or 14 days; for tumor inhibition / dose dependence of tumor inhibition: intraperitoneal; for dose dependence of tumor inhibition: range of doses and treatment times
Procedure: (§2) Female athymic nu/nu mice (Harlan, Indianapolis, Ind., U.S.A. or similar vendor), 6-8 weeks old (approximately 20 g), were implanted in the mammary fat pad of the right fore flank with 20-30 mg pieces of MX-1 (human breast cancer) tumor harvested from similar mice that had previously been implanted with the MX-1 tumor. Approximately 7-10 days after tumor transplantation, when the tumor weight was approximately 50-200 mg, the mice were assigned to treatment groups. […] All compounds were active in this assay, with tumor growth inhibition compared to vehicle between 5% (compound 171A) and 99% (compound 13A), with most compounds causing at least 30% tumor growth inhibition. […] Compound 13A was tested at 25, 50, or 100 mg/Kg for 5 or 9 days, causing tumor inhibition between 19% (25 mg/Kg for 5 days) and 99% (100 mg/Kg for 9 days). Compound 70A was tested at 50, 100, and 150 mg/Kg for 5 or 12 days, causing tumor inhibition between 16% (50 mg/Kg for 5 days) and 95% (150 mg/Kg for 12 days).

[2] = test system: LNCap (prostate carcinoma); experiment: Cytotoxicity/growth inhibition assay, LNCap; type: cell-based, human; conditions: read-out: IC50 (LNCap)
In short: as §1

[3] = test system: HCT116 (human colon cancer) tumor; experiment: HCT116 xenograft assay, intraperitoneal administration; type: in vivo, athymic nu/nu mice; conditions: for inhibition of tumor growth compared to vehicle: measured 13 days after start; for activity in HCT116 xenograft assay: intraperitoneal once/day for 11 days
Procedure: Male athymic nu/nu mice, 6-8 weeks old (approximately 20 g), were implanted subcutaneously in the right fore flank with 20-30 mg pieces of HCT116 (human colon cancer) tumor harvested from similar mice that had previously been implanted with the HCT116 tumor. Approximately 7-10 days after tumor transplantation, when the tumor weight was approximately 50-200 mg, the mice were assigned to treatment groups. Groups of mice were treated with compounds 5A or 13A at 100 mg/Kg, or compound 70A at 150 mg/Kg, by intraperitoneal injection once/day for 11 days, with vehicle control. Tumor growth inhibition was measured 13 days after the start of treatment.

[4] = test system: DLD-1 (colorectal adenocarcinoma); experiment: Cytotoxicity/growth inhibition assay, DLD-1; type: cell-based, human; conditions: read-out: IC50 (DLD-1)
In short: as §1

[5] = test system: MiaPaCa-2 (human pancreatic cancer) tumor; experiment: MiaPaCa-2 xenograft assay, oral administration; type: in vivo, athymic nu/nu mice; conditions: 200 mg/Kg for 7 days
[6] = test system: MX-1 (human breast cancer) tumor; experiment: MX-1 xenograft assay, oral administration; type: in vivo, athymic nu/nu mice; conditions: for inhibition of tumor growth compared to vehicle / dose dependence of tumor inhibition, oral: measured 13 days after start; for activity in MX-1 xenograft assay, oral / dose dependence of tumor inhibition, oral: gavage once/day for 5 days
Procedure: as §2
A study similar to that described in In vivo Example 1 was performed using oral administration of compounds 13A and 70A. Groups of mice were treated with compound 13A at 50, 100, or 300 mg/Kg, or compound 70A at 100, 150, 200, or 250 mg/Kg, by gavage once/day for 5 days (with vehicle control). Tumor growth inhibition was measured 13 days after the start of treatment.

[7] = test system: MiaPaCa-2 (human pancreatic cancer) tumor; experiment: MiaPaCa-2 xenograft assay, intraperitoneal administration; type: in vivo, athymic nu/nu mice; conditions: 100 mg/Kg intraperitoneal once/day for 14 days; for inhibition of tumor growth compared to vehicle: measured 15 days after start
Procedure: Male athymic nu/nu mice, 6-8 weeks old (approximately 20 g), were implanted subcutaneously in the right fore flank with 20-30 mg pieces of MiaPaCa-2 (human pancreatic cancer) tumor harvested from similar mice that had previously been implanted with the MiaPaCa-2 tumor. Approximately 7-10 days after tumor transplantation, when the tumor weight was approximately 50-200 mg, the mice were assigned to treatment groups. Groups of mice were treated with compound 13A or 70A at 100 mg/Kg by intraperitoneal injection once/day for 14 days, with vehicle control. Tumor growth inhibition was measured 15 days after the start of treatment.

[8] = test system: P388 murine leukemia cell line; experiment: Cross-resistance assay; type: cell-based; conditions: P388 vs doxorubicin-resistant derivative; cross-resistant if resistance ratio approximately 2 or higher
Description: The human cancer cell lines DLD-1 (colorectal adenocarcinoma), LNCap (prostate carcinoma), and OVCAR-3 (ovarian carcinoma) were obtained from the American Type Culture Collection, Manassas, Va., U.S.A., and HL-60 (promyeloid myelocytic leukemia), MX-1 (breast carcinoma), P388, and P388ADR from the National Cancer Institute, Bethesda, Md., U.S.A. Carboplatin, doxorubicin, and melphalan were obtained from Sigma-Aldrich Chemical Company, St. Louis, Mo., U.S.A. The CellTiter-Glo assay kit was obtained from Promega Corporation, Madison, Wis., U.S.A., and the Cellular DNA Cytometric Analysis Reagent Kit from Roche Diagnostics Corporation, Indianapolis, Ind., U.S.A. Lambda DNA was obtained from New England Biolabs, Beverly, Mass., U.S.A., and SYBR-Gold from Molecular Probes, Inc., Eugene, Oreg., U.S.A. The DNeasy Tissue Kit was obtained from Qiagen Inc., Valencia, Calif., U.S.A., and AmpliTaq Gold DNA polymerase and PCR reagents from Applied Biosystems, Foster City, Calif., U.S.A. All products were used in accordance with manufacturer's directions. All assays were conducted in triplicate wells, with dimethyl sulfoxide (DMSO) solvent control. The extent of cell growth was expressed as a percentage of the signal from the solvent control wells.

DLD-1 cells = experiment: Cell cycle analysis; type: cell-based, human; conditions: approximately IC75-85, one and two days, propidium iodide FACS
Lambda DNA = experiment: DNA damage assay; type: biochemical; conditions: 100 μM and 300 μM, room temperature, one day, PCR amplification
[9] = MX-1 cells, 3 days culture, CellTiter-Glo, 0.1-200 μM tested
[10] = LNCap cells, 4 days culture, CellTiter-Glo, 0.1-200 μM tested
[11] = 100 mg/Kg intraperitoneal once/day for 11 days
[12] = DLD-1 cells, 4 days culture, CellTiter-Glo, 0.1-200 μM tested

| SMILES | IC50 (MX-1 (breast carcinoma); [9]) [µM] | activity in MX-1 xenograft assay [1] | IC50 [2, 10] [µM] | IC50 [4, 12] [µM] | other results |
| --- | --- | --- | --- | --- | --- |
| CCCCS(=O)(=O)CCOP(=O)(N(CCCl)CCCl)N(CCCl)CCCl [Compound 5A] | 14.3 | active | 42.8 | 6.6 | inhibition of tumor growth compared to vehicle [3, 11]: 10%; activity in HCT116 xenograft assay [3]: active |
| CNC(=O)CS(=O)(=O)CCOP(=O)(N(CCCl)CCCl)N(CCCl)CCCl [Compound 13A, N-methyl-2-[[2-[[bis[bis(2-chloroethyl)amino]phosphinyl]oxy]ethyl]sulfonyl]acetamide] | – | active | – | – | IC50 (MX-1 (breast carcinoma); Homo sapiens, MX1, 72 h): 11.7 µM; tumor growth inhibition compared to vehicle [1]: 99%; tumor inhibition ([1]; 25 mg/Kg for 5 days): 19%; tumor inhibition ([1]; 100 mg/Kg for 9 days): 99%; dose dependence of tumor inhibition [1]: dose-dependent tumor inhibition; activity in MiaPaCa-2 xenograft assay, oral [5]: active; inhibition of tumor growth [5]: 82%; IC50 ([2]; Homo sapiens, LNCaP, 96 h): 53.5 µM; inhibition of tumor growth compared to vehicle [3, 11]: 43%; activity in HCT116 xenograft assay [3]: active; inhibition of tumor growth compared to vehicle ([6]; 50 mg/Kg gavage once/day for 5 days): 63%; inhibition of tumor growth compared to vehicle ([6]; 300 mg/Kg gavage once/day for 5 days): 100%; activity in MX-1 xenograft assay, oral [6]: active; dose dependence of tumor inhibition, oral [6]: dose-dependent tumor inhibition; activity in MiaPaCa-2 xenograft assay [7]: active; inhibition of tumor growth compared to vehicle [7]: 78%; IC50 ([4]; Homo sapiens, DLD-1, 96 h): 7.1 µM |
| O=C(CS(=O)(=O)CCOP(=O)(N(CCCl)CCCl)N(CCCl)CCCl)N[C@@H](Cc1ccccc1)C(=O)O [Compound 15A, N-{2-[[2-[[bis[bis(2-chloroethyl)amino]phosphinyl]oxy]ethyl]sulfonyl]acetyl}-L-phenylalanine] | – | active | – | – | IC50 (MX-1 (breast carcinoma); Homo sapiens, MX1, 72 h): 23.6 µM; IC50 ([2]; Homo sapiens, LNCaP, 96 h): ≥ 200 µM; IC50 ([4]; Homo sapiens, DLD-1, 96 h): 13.7 µM |
| O=C(CS(=O)(=O)CCOP(=O)(N(CCCl)CCCl)N(CCCl)CCCl)NCCN1CCOCC1 [Compound 23A] | 25.9 | active | 47.5 | 6.6 | – |
| N[C@@H](CS(=O)(=O)CCOP(=O)(N(CCCl)CCCl)N(CCCl)CCCl)C(=O)O [Compound 70A, 3-[[2-[[bis[bis(2-chloroethyl)amino]phosphinyl]oxy]ethyl]sulfonyl]-L-alanine] | – | active | – | – | IC50 (MX-1 (breast carcinoma); Homo sapiens, MX1, 72 h): 36.7 µM; tumor inhibition ([1]; 50 mg/Kg for 5 days): 16%; tumor inhibition ([1]; 150 mg/Kg for 12 days): 95%; dose dependence of tumor inhibition [1]: dose-dependent tumor inhibition; cross-resistance with doxorubicin [8]: not cross-resistant; activity in MiaPaCa-2 xenograft assay, oral [5]: active; inhibition of tumor growth [5]: 27%; inhibition of tumor growth compared to vehicle ([3]; 150 mg/Kg intraperitoneal once/day for 11 days): 26%; activity in HCT116 xenograft assay [3]: active; cell cycle effect (G2/M cycle block) (DLD-1 cells): induced a G2/M cycle block; inhibition of tumor growth compared to vehicle ([6]; 100 mg/Kg gavage once/day for 5 days): 36%; inhibition of tumor growth compared to vehicle ([6]; 250 mg/Kg gavage once/day for 5 days): 96%; activity in MX-1 xenograft assay, oral [6]: active; dose dependence of tumor inhibition, oral [6]: dose-dependent tumor inhibition; activity in MiaPaCa-2 xenograft assay [7]: active; inhibition of tumor growth compared to vehicle [7]: 38%; DNA damage activity (Lambda DNA): only marginal DNA damage activity; IC50 ([4]; Homo sapiens, DLD-1, 96 h): 10.7 µM |
| O=C(c1ccco1)C1CCN(C(=O)c2ccc(CS(=O)(=O)CCOP(=O)(N(CCCl)CCCl)N(CCCl)CCCl)cc2)CC1 [Compound 171A] | 6.1 | active | 27.7 | 6.1 | tumor growth inhibition compared to vehicle [1]: 5% |
| CCOC(=O)CNC(=O)c1ccc(CS(=O)(=O)CCOP(=O)(N(CCCl)CCCl)N(CCCl)CCCl)cc1 [Compound 172A, α-[[2-[[bis[bis(2-chloroethyl)amino]phosphinyl]oxy]ethyl]sulfonyl]-4-[(ethoxycarbonylmethyl)-aminocarbonyl]toluene] | – | active | – | – | IC50 (MX-1 (breast carcinoma); Homo sapiens, MX1, 72 h): 4.8 µM; IC50 ([2]; Homo sapiens, LNCaP, 96 h): 31.6 µM; IC50 ([4]; Homo sapiens, DLD-1, 96 h): 6.1 µM |
| O=C(NCCCN1CCOCC1)c1ccc(CS(=O)(=O)CCOP(=O)(N(CCCl)CCCl)N(CCCl)CCCl)cc1 [Compound 175A] | 18.2 | – | 65.1 | 10.9 | – |
| O=C(c1ccc(CS(=O)(=O)CCOP(=O)(N(CCCl)CCCl)N(CCCl)CCCl)cc1)N1CCN(c2ccccn2)CC1 [Compound 176A] | 6.4 | – | 29 | 4.9 | – |
| O=C(c1ccc(CS(=O)(=O)CCOP(=O)(N(CCCl)CCCl)N(CCCl)CCCl)cc1)N1CCN(Cc2ccccc2)CC1 [Compound 177A] | 8.8 | – | 21.1 | 4.5 | – |
| O=P(OCCS(=O)(=O)Cc1ccco1)(N(CCCl)CCCl)N(CCCl)CCCl [Compound 179A] | 7.2 | – | 25.6 | 7.6 | – |
| O=P(OCCS(=O)(=O)Cc1cccs1)(N(CCCl)CCCl)N(CCCl)CCCl [Compound 180A] | 9.3 | active | 16.8 | 4.9 | – |
| O=P(OCCS(=O)(=O)Cc1ccccn1)(N(CCCl)CCCl)N(CCCl)CCCl [Compound 181A] | 8.4 | – | 26.4 | 7.4 | – |
| O=P(OCCS(=O)(=O)Cc1cccc[n+]1[O-])(N(CCCl)CCCl)N(CCCl)CCCl [Compound 182A] | 8 | – | 22.3 | 7.1 | – |
| Cc1ncc(CS(=O)(=O)CCOP(=O)(N(CCCl)CCCl)N(CCCl)CCCl)c(CO)c1O [Compound 183A] | 18.4 | – | 42.1 | 4.9 | – |
| Cc1c(O)c(CO)c(CS(=O)(=O)CCOP(=O)(N(CCCl)CCCl)N(CCCl)CCCl)c[n+]1[O-] [Compound 184A] | 28.9 | – | 94.8 | 5.3 | – |
